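Growth conditions: 96-well plates. Treatment: test compound, 48 hours, 5 concentrations. Analysis: linear interpolation between bracketing concentrations; unreached endpoints set to highest concentration. Abbreviation: GI50, concentration required for 50% inhibition of growth.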 Active and inactive are the calls of the source. Rule as the data show it: active = GI50 up to about 1.1 µM and inactive = higher.
Key:
Assay in all cases: inhibition of tumour cell growth, NCI panel, 48 h
A549 = tested on: A549
ACHN = tested on: ACHN
CCRF-CEM = tested on: CCRF-CEM
HOP-62 = tested on: HOP-62
HOP-92 = tested on: HOP-92
M14 = tested on: M14
NCI-H460 = tested on: NCI-H460
OVCAR-3 = tested on: OVCAR-3
OVCAR-4 = tested on: OVCAR-4
OVCAR-5 = tested on: OVCAR-5
OVCAR-8 = tested on: OVCAR-8
SF-295 = tested on: SF-295
SK-MEL-2 = tested on: SK-MEL-2
SK-MEL-5 = tested on: SK-MEL-5
TK-10 = tested on: TK-10
U-251 = tested on: U-251
UACC-257 = tested on: UACC-257
UACC-62 = tested on: UACC-62
UO-31 = tested on: UO-31
SR = tested on: SR

| Structure (SMILES) | GI50 (A549) | GI50 (ACHN) | GI50 (CCRF-CEM) | GI50 (HOP-62) | GI50 (HOP-92) | GI50 (M14) | GI50 (NCI-H460) | GI50 (OVCAR-3) | GI50 (OVCAR-4) | GI50 (OVCAR-5) | GI50 (OVCAR-8) | GI50 (SF-295) | GI50 (SK-MEL-2) | GI50 (SK-MEL-5) | GI50 (TK-10) | GI50 (U-251) | GI50 (UACC-257) | GI50 (UACC-62) | GI50 (UO-31) | GI50 (SR) |
| --- | --- | --- | --- | --- | --- | --- | --- | --- | --- | --- | --- | --- | --- | --- | --- | --- | --- | --- | --- | --- |
| COC1CC(=O)C2C(=O)N(c3ccccc3)C(=O)C23C(C(=O)c2ccccc2)=C(C)NC13O (stereo not given) | 34.4 µM (inactive) | 12.9 µM (inactive) | 3.69 µM (inactive) | 20.2 µM (inactive) | < 0.01 µM (active) | 15.5 µM (inactive) | 21.7 µM (inactive) | 2.12 µM (inactive) | 4.92 µM (inactive) | 18.9 µM (inactive) | 21.1 µM (inactive) | 32.4 µM (inactive) | 17.1 µM (inactive) | 18.6 µM (inactive) | 6.32 µM (inactive) | 17.3 µM (inactive) | 22.9 µM (inactive) | 16.4 µM (inactive) | 11.4 µM (inactive) |  |
| Cc1c2c(n(CCN(C)C)c1C)NN=C(C#N)S2(=O)=O | > 100 µM (inactive) | > 100 µM (inactive) |  | > 100 µM (inactive) |  | > 100 µM (inactive) | > 100 µM (inactive) | > 100 µM (inactive) | > 100 µM (inactive) | > 100 µM (inactive) | > 100 µM (inactive) |  | > 100 µM (inactive) |  | > 100 µM (inactive) | > 100 µM (inactive) | > 100 µM (inactive) | > 100 µM (inactive) | > 100 µM (inactive) |  |
| CCOC(=O)c1ccc(C(=O)C(C(C)=O)C(=O)OC(C)(C)C)[nH]1 (stereo not given) | > 100 µM (inactive) | > 100 µM (inactive) |  | > 100 µM (inactive) |  | > 100 µM (inactive) | > 100 µM (inactive) | > 100 µM (inactive) | > 100 µM (inactive) | > 100 µM (inactive) | > 100 µM (inactive) | > 100 µM (inactive) | > 100 µM (inactive) | > 100 µM (inactive) |  | > 100 µM (inactive) |  | > 100 µM (inactive) | > 100 µM (inactive) | > 100 µM (inactive) |
| O=C1c2sc(-c3ccc(F)cc3)cc2-n2cccc21 | 26 µM (inactive) | 29.9 µM (inactive) | 28.5 µM (inactive) | 17 µM (inactive) |  | 38.1 µM (inactive) | 24.9 µM (inactive) | 32.8 µM (inactive) | 28.1 µM (inactive) | > 100 µM (inactive) | 27.6 µM (inactive) | 25.1 µM (inactive) | > 100 µM (inactive) | 38.5 µM (inactive) | 21.9 µM (inactive) | 16.4 µM (inactive) | 47.5 µM (inactive) | 28.3 µM (inactive) | 22.5 µM (inactive) | 17.8 µM (inactive) |
| CC1(C)C2CCC3(OCCO3)C1C1OC12 (stereo not given) | > 100 µM (inactive) | > 100 µM (inactive) | > 100 µM (inactive) |  | > 100 µM (inactive) | > 100 µM (inactive) | > 100 µM (inactive) | > 100 µM (inactive) | > 100 µM (inactive) | > 100 µM (inactive) | > 100 µM (inactive) | > 100 µM (inactive) | > 100 µM (inactive) | > 100 µM (inactive) | > 100 µM (inactive) | > 100 µM (inactive) | > 100 µM (inactive) |  | > 100 µM (inactive) |  |
| CN=S(=O)(C[C@]1(O)CC2OC1C1OC(C)(C)OC21)c1ccccc1 (stereo not given in full) | > 100 µM (inactive) | > 100 µM (inactive) | > 100 µM (inactive) | > 100 µM (inactive) | > 100 µM (inactive) | > 100 µM (inactive) | > 100 µM (inactive) | > 100 µM (inactive) | > 100 µM (inactive) | > 100 µM (inactive) | > 100 µM (inactive) | > 100 µM (inactive) | > 100 µM (inactive) | > 100 µM (inactive) | > 100 µM (inactive) | > 100 µM (inactive) | > 100 µM (inactive) | > 100 µM (inactive) |  |  |
| CC#C[C@@]1(O)CCCC[C@@H]1O | > 100 µM (inactive) | > 100 µM (inactive) | > 100 µM (inactive) | > 100 µM (inactive) | > 100 µM (inactive) | > 100 µM (inactive) | > 100 µM (inactive) | > 100 µM (inactive) | > 100 µM (inactive) |  | > 100 µM (inactive) | > 100 µM (inactive) | > 100 µM (inactive) | > 100 µM (inactive) | > 100 µM (inactive) | > 100 µM (inactive) | > 100 µM (inactive) | > 100 µM (inactive) | > 100 µM (inactive) |  |
| COc1ccc(CCC2NCCc3cc(OC)c(OC)cc32)cc1 (stereo not given) | > 100 µM (inactive) | > 100 µM (inactive) | > 100 µM (inactive) | > 100 µM (inactive) |  | > 100 µM (inactive) | > 100 µM (inactive) | > 100 µM (inactive) | 25.3 µM (inactive) | > 100 µM (inactive) | > 100 µM (inactive) | > 100 µM (inactive) | > 100 µM (inactive) | > 100 µM (inactive) | > 100 µM (inactive) | > 100 µM (inactive) | > 100 µM (inactive) |  | 88.1 µM (inactive) |  |
| CN(COC(=O)C(C)(C)C)c1nc(N(C)COC(=O)C(C)(C)C)nc(N(C)COC(=O)C(C)(C)C)n1 | < 0.01 µM (active) | 32.3 µM (inactive) | 16.7 µM (inactive) | > 100 µM (inactive) |  | 19 µM (inactive) | 60 µM (inactive) | > 100 µM (inactive) | 82.4 µM (inactive) | > 100 µM (inactive) | > 10 µM (inactive) | 94.6 µM (inactive) | 61.1 µM (inactive) | 33.2 µM (inactive) | > 100 µM (inactive) |  | 98.2 µM (inactive) | > 10 µM (inactive) | > 100 µM (inactive) | 29.1 µM (inactive) |
| C/C=C/C(C#N)O[Si](C)(C)C (stereo not given) | > 100 µM (inactive) | > 100 µM (inactive) |  | > 100 µM (inactive) | > 100 µM (inactive) | > 100 µM (inactive) | > 100 µM (inactive) | > 100 µM (inactive) | > 100 µM (inactive) | > 100 µM (inactive) | > 100 µM (inactive) | > 100 µM (inactive) | > 100 µM (inactive) | > 100 µM (inactive) | > 100 µM (inactive) | > 100 µM (inactive) | > 100 µM (inactive) | > 100 µM (inactive) | > 100 µM (inactive) |  |
| C/C(=C/c1c(C)[nH]c(=O)[nH]c1=O)C(=O)O | > 1370 µM (inactive) |  | > 1370 µM (inactive) | > 1370 µM (inactive) |  |  | > 1370 µM (inactive) | > 1370 µM (inactive) | > 1370 µM (inactive) | > 1260 µM (inactive) |  | > 1370 µM (inactive) |  | > 1370 µM (inactive) |  | > 1370 µM (inactive) | > 1370 µM (inactive) | > 1370 µM (inactive) | > 1370 µM (inactive) |  |
| CCCSc1nc(COC(=O)NC)c(COC(=O)NC)n1C | > 100 µM (inactive) |  | 20.7 µM (inactive) | > 100 µM (inactive) | > 71 µM (inactive) |  | 54.7 µM (inactive) | > 100 µM (inactive) | > 100 µM (inactive) | > 100 µM (inactive) | > 100 µM (inactive) | > 100 µM (inactive) | > 100 µM (inactive) | > 100 µM (inactive) |  |  | > 100 µM (inactive) | > 100 µM (inactive) |  |  |
| N#CN=C(N(Cc1ccccc1)Cc1ccccc1)N(Cc1ccccc1)Cc1ccccc1 | 6.44 µM (inactive) | 4.53 µM (inactive) | 5.73 µM (inactive) | > 100 µM (inactive) |  | 15.3 µM (inactive) | 3.88 µM (inactive) | 10.9 µM (inactive) |  | 45.2 µM (inactive) | 6.7 µM (inactive) | > 100 µM (inactive) | 12 µM (inactive) |  |  |  | 8.47 µM (inactive) | 6.32 µM (inactive) | 5.64 µM (inactive) |  |
| CN(/N=C/c1cccc2cccnc12)c1ccc([N+](=O)[O-])cc1[N+](=O)[O-] | 48.5 µM (inactive) | 22 µM (inactive) | > 96.6 µM (inactive) | 8.61 µM (inactive) | 14.8 µM (inactive) | 54.7 µM (inactive) | 46 µM (inactive) | 16.4 µM (inactive) | 20.7 µM (inactive) | 70.1 µM (inactive) | 32.7 µM (inactive) | 13 µM (inactive) | 14.9 µM (inactive) | 52.5 µM (inactive) | 29 µM (inactive) | 13.9 µM (inactive) | 82 µM (inactive) | 25.1 µM (inactive) | 37.3 µM (inactive) |  |
| Cc1ccc(-c2nnc3s/c(=C\c4ccc(N(C)C)cc4)c(=O)n23)cc1 | > 100 µM (inactive) | > 100 µM (inactive) | > 100 µM (inactive) | > 100 µM (inactive) | > 100 µM (inactive) | > 100 µM (inactive) | > 100 µM (inactive) | > 100 µM (inactive) | > 100 µM (inactive) | > 100 µM (inactive) | > 100 µM (inactive) | > 100 µM (inactive) | > 100 µM (inactive) | > 100 µM (inactive) | > 100 µM (inactive) | > 100 µM (inactive) | 11.7 µM (inactive) | > 100 µM (inactive) | > 100 µM (inactive) |  |
| O=c1cc(NNc2ccccc2)[nH]c(=O)[nH]1 | > 100 µM (inactive) | 13.3 µM (inactive) | 27.5 µM (inactive) | 85.3 µM (inactive) |  |  | 27.5 µM (inactive) | 17.2 µM (inactive) | 16 µM (inactive) | > 100 µM (inactive) | 23.4 µM (inactive) | 37.9 µM (inactive) |  | 80.9 µM (inactive) | 47.3 µM (inactive) | 16.1 µM (inactive) | 16.1 µM (inactive) | 14.8 µM (inactive) |  | 28.2 µM (inactive) |

— ChEMBL document CHEMBL1201862, “PubChem BioAssay data set” (2004)
